The text below walks through data of patent EP2623117A1, “Immunogenic nanomedicine composition and preparation and uses thereof” (Genetic Immunity Kft., priority 2009, dated 2010).

The nature of data set [1]: Side reaction of formulation solvent with PEIm (UV spectra after storage). Format: physicochemical. To be noted: room temperature, 2 month. As for the experimental part: • a) NanoComp formulations were prepared according to Example 1, using the same PEIm and pDNA at N/P ratio of 3, and different solvents: sterile water, physiological NaCl (0.9%), D(+)-Mannitol (10 mg/ml), Sorbitol (10 mg/ml), D(+)-Glucose (10 mg/ml), Mannose (10 mg/ml), Sucrose (10 mg/ml), Triethanolamine buffer (TEA) (pH 7.5), D(+)-Mannitol (10 mg/ml) in triethanolamine (TEA) buffer (pH 7.5), Sorbitol (10 mg/ml) in triethanolamine buffer (pH 7.5) and D(+)-Mannitol (10 mg/ml) and Glycerol (10 mg/ml) in triethanolamine buffer (pH 7.5). The biological activity is given procentual related to the biological activity of the formulation in sterile water. Results are shown in Fig. 7A. • b) PEIm solution, mixture of PEIm with Glucose (10%) and Mannitol (10%) respectively, NanoComp formulations with Glucose (10%) and Mannitol (10%) were prepared according to Example 1, the missing component in all mixtures were replaced with water, to ensure the same concentration of the components. The prepared solutions were stored at room temperature (approx. 25°C) for 2 month. UV spectra were recorded without dilution. […] The particle size of the formed complexes was measured using ZetaPALS, Brookehaven instrument freshly and after 6 days storage at room temperature.

In data set [2] the test system is 293T human cells. In words: In vitro biological activity assay: transfection of 293T cells, HIV-1 p24 antigen ELISA of supernatant. To be noted: N/P ratio of 3. Format: cell-based. As for the experimental part:
The in vitro biological activity test of the NanoComp is performed by transfection of 293T human cells. 50,000 cells are plated in 96 well plate 19 hours before transfection, using DMEM culture medium (DMEM, 1% FBS, 1% L-glutamine, 1% Penicillin-Streptomycin). 0.5µg pDNA/NanoComp is added to each well followed by 21 hours incubation at 37°C in 5% CO2 air condition. During the incubation period, the HIV-specific protein antigens encoded by the pDNA are expressed and secreted into the culture medium. After 21 hours, the supernatant of the cells are collected, and HIV-1 p24 antigen ELISA is performed to quantify p24 protein produced by the pDNA.

For `OC[C@@H](O)[C@@H](O)[C@H](O)[C@H](O)CO` [mannitol, D(+)-Mannitol], the “side reaction of solvent with PEIm over time” value in data set [1] is recorded as “without side reactions with PEIm”. In data set [2], the “effect of solvent on the biological activity of the NanoComp compared to sterile water” value was “same improving effect on the biological activity”.
